US8956999B2, “Herbicides” (Syngenta Limited, priority 2007, dated 2015)

Legend:
Format in all cases: in vivo
[1] = test system: Alopecurus myosuroides (ALOMY); test: Example A pre-emergence herbicidal test, glasshouse; settings: rate 250 g/ha, evaluated after 20 days, 100=total damage to plant, 0=no damage to plant
Experimental: (§1) Seeds of a variety of test species were sown in standard soil in pots. After cultivation for one day (pre-emergence) or after 10 days cultivation (post-emergence) under controlled conditions in a glasshouse, the plants were sprayed with an aqueous spray solution derived from the formulation of the technical active ingredient in 0.6 ml acetone and 45 ml formulation solution containing 10.6% Emulsogen EL (Registry number 61791-12-6), 42.2% N-methylpyrrolidone, 42.2% dipropylene glycol monomethyl ether (Registry number 34590-94-8) and 0.2% X-77 (Registry number 11097-66-8). The test plants were then grown in a greenhouse under optimum conditions until, 14 or 15 days later for post-emergence and 20 days for pre-emergence, the test was evaluated (100=total damage to plant; 0=no damage to plant). Test Plants: Alopecurus myosuroides (ALOMY), Avena fatua (AVEFA), Lolium perenne (LOLPE), Setaria faberi (SETFA), Digitaria sanguinalis (DIGSA), Echinochloa crus-galli (ECHCG)

[2] = test system: Avena fatua (AVEFA); test: as above; settings: rate 250 g/ha, evaluated after 20 days, 100=total damage to plant, 0=no damage to plant
Experimental: as §1

[3] = test system: Lolium perenne (LOLPE); test: as above; settings: rate 250 g/ha, evaluated after 20 days, 100=total damage to plant, 0=no damage to plant
Experimental: as §1

[4] = test system: Digitaria sanguinalis (DIGSA); test: as above; settings: rate 250 g/ha, evaluated after 20 days, 100=total damage to plant, 0=no damage to plant
Experimental: as §1

[5] = test system: Setaria faberi (SETFA); test: as above; settings: rate 250 g/ha, evaluated after 20 days, 100=total damage to plant, 0=no damage to plant
Experimental: as §1

[6] = test system: Echinochloa crus-galli (ECHCG); test: as above; settings: rate 250 g/ha, evaluated after 20 days, 100=total damage to plant, 0=no damage to plant
Experimental: as §1

[7] = test system: Alopecurus myosuroides (ALOMY); test: Example A post-emergence herbicidal test, glasshouse; settings: rate 125 g/ha, evaluated 14 or 15 days later, 100=total damage to plant, 0=no damage to plant
Experimental: as §1

[8] = test system: Avena fatua (AVEFA); test: as above; settings: rate 125 g/ha, evaluated 14 or 15 days later, 100=total damage to plant, 0=no damage to plant
Experimental: as §1

[9] = test system: Lolium perenne (LOLPE); test: as above; settings: rate 125 g/ha, evaluated 14 or 15 days later, 100=total damage to plant, 0=no damage to plant
Experimental: as §1

[10] = test system: Digitaria sanguinalis (DIGSA); test: as above; settings: rate 125 g/ha, evaluated 14 or 15 days later, 100=total damage to plant, 0=no damage to plant
Experimental: as §1

[11] = test system: Setaria faberi (SETFA); test: as above; settings: rate 125 g/ha, evaluated 14 or 15 days later, 100=total damage to plant, 0=no damage to plant
Experimental: as §1

[12] = test system: Echinochloa crus-galli (ECHCG); test: as above; settings: rate 125 g/ha, evaluated 14 or 15 days later, 100=total damage to plant, 0=no damage to plant
Experimental: as §1

[13] = test system: Alopecurus myosuroides (ALOMY); test: Example B post-emergence herbicidal test, glasshouse; settings: 312 h, rate 1000 g/ha, evaluated after 13 days, read-out: Post-Emergence Activity ALOMY (100=total damage to plant; 0=no damage to plant)
Outline: (§2)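 Damage rated 0–100 (100 = total) 13 days after spraying, plants kept at 24/16 °C, 14 h light, 65% humidity, watered twice daily. Treatment was 1 day post-sowing for pre-emergence, 8 days for post-emergence; spray from acetone/water (50:50) formulation with 0.5% Tween 20.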

[14] = test system: Avena fatua (AVEFA); test: as above; settings: 312 h, rate 1000 g/ha, evaluated after 13 days, read-out: Post-Emergence Activity AVEFA (100=total damage to plant; 0=no damage to plant)
Outline: as §2

[15] = test system: Setaria faberi (SETFA); test: as above; settings: 312 h, rate 1000 g/ha, evaluated after 13 days, read-out: Post-Emergence Activity SETFA (100=total damage to plant; 0=no damage to plant)
Outline: as §2

[16] = test system: Solanum nigrum (SOLNI); test: as above; settings: 312 h, rate 1000 g/ha, evaluated after 13 days, read-out: Post-Emergence Activity SOLNI (100=total damage to plant; 0=no damage to plant)
Outline: as §2

[17] = test system: Echinochloa crus-galli (ECHCG); test: as above; settings: 312 h, rate 1000 g/ha, evaluated after 13 days, read-out: Post-Emergence Activity ECHCG (100=total damage to plant; 0=no damage to plant)
Outline: as §2

[18] = test system: Amaranthus retoflexus (AMARE); test: as above; settings: Amaranthus retroflexus, 312 h, rate 1000 g/ha, evaluated after 13 days, read-out: Post-Emergence Activity AMARE (100=total damage to plant; 0=no damage to plant)
Outline: as §2

[19] = test system: Alopecurus myosuroides (ALOMY); test: Example B pre-emergence herbicidal test, glasshouse; settings: 312 h, rate 1000 g/ha, evaluated after 13 days, 100=total damage to plant, 0=no damage to plant
Outline: as §2

[20] = test system: Avena fatua (AVEFA); test: as above; settings: 312 h, rate 1000 g/ha, evaluated after 13 days, 100=total damage to plant, 0=no damage to plant
Outline: as §2

[21] = test system: Setaria faberi (SETFA); test: as above; settings: rate 1000 g/ha, evaluated after 13 days, 100=total damage to plant, 0=no damage to plant
Outline: as §2

[22] = test system: Solanum nigrum (SOLNI); test: as above; settings: rate 1000 g/ha, evaluated after 13 days, 100=total damage to plant, 0=no damage to plant
Outline: as §2

[23] = test system: Echinochloa crus-galli (ECHCG); test: as above; settings: rate 1000 g/ha, evaluated after 13 days, 100=total damage to plant, 0=no damage to plant
Outline: as §2

[24] = test system: Amaranthus retoflexus (AMARE); test: as above; settings: Amaranthus retroflexus, 312 h, rate 1000 g/ha, evaluated after 13 days, 100=total damage to plant, 0=no damage to plant
Outline: as §2

SMILES	Pre-Emergence Activity ALOMY [1]	Pre-Emergence Activity AVEFA [2]	Pre-Emergence Activity LOLPE [3]	Pre-Emergence Activity DIGSA [4]	Pre-Emergence Activity SETFA [5]	Pre-Emergence Activity ECHCG [6]	Post-Emergence Activity ALOMY [7]	Post-Emergence Activity AVEFA [8]	Post-Emergence Activity LOLPE [9]	Post-Emergence Activity DIGSA [10]	Post-Emergence Activity SETFA [11]	Post-Emergence Activity ECHCG [12]	pest or weed control at 1000 g/ha [13] [%]	pest or weed control at 1000 g/ha [14] [%]	pest or weed control at 1000 g/ha [15] [%]	pest or weed control at 1000 g/ha [16] [%]	pest or weed control at 1000 g/ha [17] [%]	pest or weed control at 1000 g/ha [18] [%]	pest or weed control at 1000 g/ha [19] [%]	pest or weed control at 1000 g/ha [20] [%]	further results
CCc1sc(-c2ccc(Cl)cc2)nc1C1C(=O)C(C)(C)C(=O)C(C)(C)C1=O [Compound T6]	50	20	80	70	60	50	70	60	30	70	70	70	90	90	100	0	90	0	–	–	–
COC(=O)c1ccc(-c2cc(C3C(=O)C(C)(C)OC(C)(C)C3=O)c(C)s2)cc1 [Compound T20]	–	–	–	–	–	–	–	–	–	–	–	–	0	0	10	0	0	0	30	0	Pre-Emergence Activity SETFA [21]: 0; Pre-Emergence Activity SOLNI [22]: 70; Pre-Emergence Activity ECHCG [23]: 0; pest or weed control at 1000 g/ha [24]: 80%
CCc1sc(-c2ccc(Cl)cc2)nc1C1=C(OC(=O)C(C)(C)C)C(C)(C)OC(C)(C)C1=O [Compound P2, 2,2-dimethylpropionic acid 4-[2-(4-chlorophenyl)-5-ethylthiazol-4-yl]-2,2,6,6-tetramethyl-5-oxo-5,6-dihydro-2H-pyran-3-yl ester]	–	–	–	–	–	–	–	–	–	–	–	–	90	90	100	0	100	0	60	30	Pre-Emergence Activity SETFA [21]: 80; Pre-Emergence Activity SOLNI [22]: 0; Pre-Emergence Activity ECHCG [23]: 50; pest or weed control at 1000 g/ha [24]: 80%
Cc1[se]c(-c2ccc(Cl)cc2)nc1C1C(=O)C(C)(C)OC(C)(C)C1=O [Compound T16, 5-[2-(4-chlorophenyl)-5-methylselenazol-4-yl]-2,2,6,6-tetramethylpyran-3,5-dione]	90	50	100	100	0	60	70	70	60	90	90	100	–	–	–	–	–	–	–	–	–
Cc1sc(-c2ccc(Cl)cc2)cc1C1C(=O)C(C)(C)OC(C)(C)C1=O [Compound T12]	30	0	0	20	0	40	80	70	70	90	80	100	–	–	–	–	–	–	–	–	–
Cc1sc(-c2ccc(Cl)cc2)nc1C1C(=O)C(C)(C)OC(C)(C)C1=O [Compound T13]	100	50	100	100	100	100	90	80	70	100	100	100	–	–	–	–	–	–	–	–	–
Cc1sc(-c2cc(Cl)ccc2Cl)nc1C1C(=O)C(C)(C)C(=O)C(C)(C)C1=O [Compound T10, 6-[2-(2,5-dichlorophenyl)-5-methylthiazol-4-yl]-2,2,4,4-tetramethyl-cyclohexane-1,3,5-trione]	–	–	–	–	–	–	–	–	–	–	–	–	40	0	80	20	70	0	30	20	Pre-Emergence Activity SETFA [21]: 0; Pre-Emergence Activity SOLNI [22]: 0; Pre-Emergence Activity ECHCG [23]: 0; pest or weed control at 1000 g/ha [24]: 0%
CCc1sc(-c2ccc(Cl)cc2)nc1C1C(=O)C(C)(C)OC(C)(C)C1=O [Compound T11, 4-[2-(4-chlorophenyl)-5-ethylthiazol-4-yl]-2,2,6,6-tetramethylpyran-3,5-dione]	100	100	100	100	100	100	90	80	60	100	100	100	–	–	–	–	–	–	–	–	–
